Tests used:
[1] = system: Saccharomyces cerevisiae wild type strain BY4743; experiment: AF1 combined gene expression and metabolite mapping to reactions and pathways (KEGG); format: cell-based
Excerpt: The pathway score indicates how meaningful the mapping is, or how likely it is to be correctly indicative of the pathway involved in the perturbation under examination. The method provides a pathway score based on perturbation levels of genes and/or compounds and the information content of each gene and/or compound in the pathway, i.e., a pathway score indicates the extent to which other pathways are mapped to a gene/compound. For example, imagine that two genes are perturbed in a particular experiment. One gene maps to only one pathway, giving a high degree of probability that the perturbed pathway is the one identified in the mapping. The second gene maps to three pathways. In the later example, there is only one-third the probability that the pathway identified in the mapping is the one perturbed. The present invention provides a method for calculating the pathway scores, so that more weight is given to a score of a gene or compound that maps to only one pathway than to a score of a gene or compound that maps to multiple pathways. […] Where n=the total number of genes in the pathway; ipath—count=the number of pathways containing a gene; and j=the number of genes in the pathway that are perturbed. Another factor to be considered when weighting a pathway score is the degree of perturbation. Degree of perturbation can be calculated, for example, based on a number of standard deviations from a norm, and included in an equation such as the one shown above, so that not only the number of pathways is taken into account, but also accounts for the amount of gene transcript or compound present as compared to a control. The data were then combined to determine the number of reactions showing an enzyme and at least one compound perturbed, and to determine the number of pathways having at least one enzyme and one perturbed compound perturbed. The results of the analysis are represented in Tables 16 and 17, and were difficult to interpret, illustrating that the ability to draw conclusions from compound mapping to pathways is limited when absent additional data.

[2] = system: Saccharomyces cerevisiae wild type strain BY4743; experiment: AF1 gene expression analysis of yeast cells treated with antifungal drugs; format: cell-based; details: for # Transcripts perturbed: 2x MIC, two hours; for # Pathways Affected by at Least One Gene: p < 0.05
Experimental: Saccharomyces cerevisiae wild type strain BY4743 was purchased from American Type Culture Center (ATCC, Manassas, Va.). The yeast strain was grown in YPD or SD media. H. […] The cultures started from fresh single colonies were grown in 1.0 ml YPD overnight at 30° C. […] The OD600 was adjusted to 1.0 with YPD media, then 2.0 ml of each was inoculated into three 250 ml flasks, each containing 50 ml of SD media. […] The cells were kept growing for another two hours, then collected by centrifugation at 4000 rpm for 5 minutes at 4° C. Pellets were washed once with ice-cold water, then were lyophilized overnight at 4° C. […] Tubes were vortexed for 30 seconds, then incubated for 10 minutes at room temperature (RT). […] Tubes were incubated for 10 minutes at RT. Samples were centrifuged for 20 minutes as before. Pellets were washed with 400 μl 70% ethanol and centrifuged for 10 minutes as before. The pellet was then dissolved in 100 μl nuclease-free water. RNA quality was determined using the Bioanalyzer 2100 and the RNA 6000 assay (Agilent Technologies, Palo Alto, Calif.) according to manufacturer's instructions. RNA concentrations were determined spectrophotometrically by measuring the absorption at, 260 nm in an Ultrospec 2000 (Pharmacia Biotech, Piscataway, N.J.). […] Labeled cRNAs were evaluated using the RNA 6000 assay on the Agilent Bioanalyzer 2100. Labeled cRNA concentrations were determined spectrophotometrically by measuring the absorption at 260 nm in an Ultrospec 2000 (Pharmacia Biotech, Piscataway, N.J.). […] Each pair of samples to be hybridized were independently labeled and hybridized utilizing a fluor reversal for a total of two hybridizations per sample pair. The microarrays were scanned simultaneously in the Cy3 and Cy5 channels with Agilent's 48-slide, Dual Laser DNA Microarray Scanner (Agilent Technologies, Palo Alto, Calif.) at 10 μm resolution using default settings. Image Analysis Software (Version A.4.0.45, Agilent Technologies, Palo Alto, Calif.) was used for image analysis. Each feature was determined from an array's associated pattern file and a detection algorithm. Intensity values for each feature were determined after subtracting background derived from an average of negative control features. Features with unusual pixel intensity statistics (e.g., high non-uniformity, saturation in either channel, and the like) were excluded from downstream analyses. Data was loaded into the Rosetta RESOLVER database (Rosetta Inpharmatics Inc., Kirkland, Wash.) for storage and analysis. Data was evaluated after combining results from fluor reversal replicate hybridizations. The annotation of yeast ORFs was obtained from Proteome BIOKNOWLEDGE Library (Incyte Genomics, Palo Alto, Calif.). In AF1, two different technologies were utilized: gene expression analysis (for examination of mRNA expression) and metabolite analysis. […] As noted previously, existing metabolic databases may be helpful in practicing the methods and systems of the present invention, but many databases include limitations that make their use in data analysis and pathway mapping less than straightforward. […] This caveat to KEGG makes it difficult to pinpoint the correct pathway when attempting to link a gene to a specific pathway.

| Structure (SMILES) | # Reactions Having an Enzyme and at Least One Compound Perturbed [1] | Number Of Pathways Having at Least One Enzyme and One Compound Perturbed (# Reactions) [1] | # Transcripts perturbed ([2]; P < 0.05) | # Transcripts perturbed ([2]; P < 0.1) | # Pathways Affected by at Least One Gene [2] |
| --- | --- | --- | --- | --- | --- |
| C[C@@H]1[C@H](O)[C@@H](C)/C=C/C=C/C=C/C=C/C=C/C=C/C=C/[C@H](O[C@@H]2O[C@H](C)[C@@H](O)[C@H](N)[C@@H]2O)C[C@@H]2O[C@](O)(C[C@@H](O)C[C@@H](O)[C@H](O)CC[C@@H](O)C[C@@H](O)CC(=O)O[C@H]1C)C[C@H](O)[C@H]2C(=O)O [Amphoteracin B] | 54 | 37 | 4363 | 4652 | 97 |
| OC(Cn1cncn1)(Cn1cncn1)c1ccc(F)cc1F [Fluconazole] | 2 | 15 | 1411 | 1719 | 79 |
| CC[C@@H]([C@H](C)O)n1ncn(-c2ccc(N3CCN(c4ccc(OC[C@@H]5CO[C@@](Cn6cncn6)(c6ccc(F)cc6F)C5)cc4)CC3)cc2)c1=O [Posaconazole] | 0 | 3 | 690 | 925 | 69 |

From patent US20030229451A1, “Methods and systems for analyzing complex biological systems” (priority 2001, published 2003)
